Laboratory results published in ChEMBL document CHEMBL1201862, “PubChem BioAssay data set” (2004).
Active and inactive are the calls of the source.

Key:
cells [1] = format: functional, cell-based
[2] = target: T1, Nuclear receptor subfamily 0 group B member 1 (Homo sapiens, UniProt P51843); format: functional, cell-based;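 further: HEK293T cells transfected with SF-1 and DAX-1 plus StAR promoter luciferase reporter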
T1 sequence (P51843 whole entry): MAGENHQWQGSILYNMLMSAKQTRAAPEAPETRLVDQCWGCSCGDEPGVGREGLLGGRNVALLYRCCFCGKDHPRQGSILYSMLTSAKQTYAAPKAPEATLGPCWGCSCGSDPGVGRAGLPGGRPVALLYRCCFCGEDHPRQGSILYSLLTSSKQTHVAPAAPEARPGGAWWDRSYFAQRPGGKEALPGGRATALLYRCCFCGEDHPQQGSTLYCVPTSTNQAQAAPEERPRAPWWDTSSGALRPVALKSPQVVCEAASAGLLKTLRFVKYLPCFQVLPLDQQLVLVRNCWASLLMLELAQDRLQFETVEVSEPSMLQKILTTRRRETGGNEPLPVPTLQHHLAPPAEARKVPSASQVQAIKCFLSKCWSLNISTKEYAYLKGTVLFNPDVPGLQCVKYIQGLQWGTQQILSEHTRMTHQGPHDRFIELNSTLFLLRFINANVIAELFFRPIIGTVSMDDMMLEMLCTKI

[3] = target: T2, Sentrin-specific protease 8 (Homo sapiens, UniProt Q96LD8); format: functional
T2 sequence (Q96LD8 whole entry): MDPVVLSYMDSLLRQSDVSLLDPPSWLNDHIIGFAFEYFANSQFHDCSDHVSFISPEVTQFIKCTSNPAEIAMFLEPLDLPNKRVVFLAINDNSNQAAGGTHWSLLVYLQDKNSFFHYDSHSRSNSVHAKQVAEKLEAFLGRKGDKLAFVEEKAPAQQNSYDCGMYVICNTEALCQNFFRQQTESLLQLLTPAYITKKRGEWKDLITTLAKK

[4] = target: T2, Sentrin-specific protease 8; format: functional; remark: listed apart in the source
Streptococcus = assay: GAS UMAA2166 growth inhibition – luminescence, BacTiterGlo, counter-screen for streptokinase expression inhibitor project, dose response (AID 1915); format: functional, organism-based;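 further: potency for reduction of bacterial viability or growth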
[5] = Luminescence Cell-Based Dose Confirmation HTS to Identify Activators of 5'UTR Stem-Loop Driven Alpha-Synuclein mRNA Translation in H4 Neuroglioblastoma Cells. [Related pubchem assays: 1829 (Project Summary), 1814 (Primary HTS)]; format: functional
[6] = Luminescence Cell-Based Dose Response HTS to Identify Activators of Luciferase Translation or Activity in H4 […] Cells. [Related pubchem assays: 1829 (Project Summary), 1814 (Primary HTS)]; format: functional
H4 = assay: Luminescence Cell-Based Dose Response HTS to Identify Activators of 5'UTR Stem-Loop Driven Prion Protein mRNA Translation in H4 Neuroglioblastoma Cells. [Related pubchem assays: 1829 (Project Summary), 1814 (Primary HTS)]; format: functional; conditions: Homo sapiens
[7] = target: T3, Endoribonuclease toxin MazF (Escherichia coli K-12, UniProt P0AE70); assay: substrate-only fluorescence increase artefacts – biochemical, single-stranded RNase substrate, counter-screen for MazEF activator project, dose response (AID 588502); format: functional
T3 sequence (P0AE70 whole entry): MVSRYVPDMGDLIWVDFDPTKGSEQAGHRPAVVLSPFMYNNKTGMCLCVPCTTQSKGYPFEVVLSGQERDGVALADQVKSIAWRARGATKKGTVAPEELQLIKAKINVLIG

[8] = target: T3, Endoribonuclease toxin MazF; assay: activation of MazEF endoribonuclease cleavage – biochemical, fluorescence, single-stranded RNA substrate, uHTS hits, dose response (AID 588481); format: functional
[9] = system: Streptococcus sp. 'group A'; assay: Streptococcus pyogenes SK(-)GAS viability under kanamycin – luminescence, BacTiterGlo, confirmation, counter-screen for streptokinase expression inhibitor project, dose response (AID 1900); format: functional, organism-based
[10] = target: T4, Trace amine-associated receptor 1 (Homo sapiens, UniProt Q96RJ0); assay: Fluorescence-based cell-based high throughput dose response assay to identify agonists of the human trace amine associated receptor 1 (TAAR1).; format: functional
T4 sequence (Q96RJ0 whole entry): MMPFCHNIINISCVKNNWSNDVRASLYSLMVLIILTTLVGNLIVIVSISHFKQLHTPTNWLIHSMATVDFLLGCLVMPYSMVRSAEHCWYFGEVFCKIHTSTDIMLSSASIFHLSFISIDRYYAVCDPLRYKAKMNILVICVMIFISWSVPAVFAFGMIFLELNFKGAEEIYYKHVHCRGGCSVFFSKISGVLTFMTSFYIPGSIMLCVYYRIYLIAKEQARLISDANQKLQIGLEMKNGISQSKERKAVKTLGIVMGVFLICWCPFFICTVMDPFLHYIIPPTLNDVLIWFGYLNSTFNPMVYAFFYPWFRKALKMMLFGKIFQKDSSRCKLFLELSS

[11] = target: Induced myeloid leukemia cell differentiation protein Mcl-1 (Homo sapiens, UniProt Q07820); format: functional
cells [12] = format: functional, cell-based; remark: listed apart in the source
cells [13] = format: functional, cell-based; remark: listed apart in the source
[14] = target: T4, Trace amine-associated receptor 1; assay: Counterscreen for agonists of the human trace amine associated receptor 1 (hTAAR1): Fluorescence-based cell-based high throughput dose response assay to identify hTAAR1 agonist that also desensitize TAAR1 receptor response.; format: functional
[15] = target: T5, Small ubiquitin-related modifier 1 (Homo sapiens, UniProt P63165); assay: SUMO1 protein interaction blockers, potency – biochemical, fluorescence polarization, uHTS hits, dose response (AID 624382); format: functional; conditions: read-out: IC50_Mean
[16] = target: T5, Small ubiquitin-related modifier 1; assay: SUMO1 protein-protein binding blockers, potency – biochemical, FRET, dose response (AID 624383); format: functional; conditions: read-out: IC50_Mean
Albumin = Albumin (Bos taurus, UniProt P02769); assay: Counterscreen for inhibitors of T-cell receptor (TCR)-CD3 interaction: Fluorescence-based biochemical high throughput dose response assay to identify inhibitors of T-cell receptor (TCR)-CD3 interaction using a TAMRA-labeled BSA probe.; format: functional
[17] = target: T6, Probable nicotinate-nucleotide adenylyltransferase (Staphylococcus aureus (strain N315), UniProt P65502); format: functional, Staphylococcus aureus subsp. aureus N315; conditions: read-out: IC50_Mean;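 on IC50 Mean: confirmatory dose-response retesting of NadD inhibitor hits first found in an ultra-high-throughput screen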
[18] = target: DNA (cytosine-5)-methyltransferase 1 (Homo sapiens, UniProt P26358); assay: inhibition of DNA methylation by DNMT1 – biochemical, fluorescent molecular beacon, confirmation (AID 602386); format: functional
[19] = target: T7, Heat shock factor protein 1 (Mus musculus, UniProt P38532); assay: enhancement of HSF1-driven luciferase signal – cell-based, NIH3T3, luminescence, dose retest, confirmation (AID 435004); format: functional;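 further: stress induced by proteasome inhibitor MG132 added 30 min after compound; luciferase reporter driven by HSF1 response element in NIH3T3 cells; actives raise luminescence as potentiators of the MG132 stress response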
T7 sequence (P38532 whole entry): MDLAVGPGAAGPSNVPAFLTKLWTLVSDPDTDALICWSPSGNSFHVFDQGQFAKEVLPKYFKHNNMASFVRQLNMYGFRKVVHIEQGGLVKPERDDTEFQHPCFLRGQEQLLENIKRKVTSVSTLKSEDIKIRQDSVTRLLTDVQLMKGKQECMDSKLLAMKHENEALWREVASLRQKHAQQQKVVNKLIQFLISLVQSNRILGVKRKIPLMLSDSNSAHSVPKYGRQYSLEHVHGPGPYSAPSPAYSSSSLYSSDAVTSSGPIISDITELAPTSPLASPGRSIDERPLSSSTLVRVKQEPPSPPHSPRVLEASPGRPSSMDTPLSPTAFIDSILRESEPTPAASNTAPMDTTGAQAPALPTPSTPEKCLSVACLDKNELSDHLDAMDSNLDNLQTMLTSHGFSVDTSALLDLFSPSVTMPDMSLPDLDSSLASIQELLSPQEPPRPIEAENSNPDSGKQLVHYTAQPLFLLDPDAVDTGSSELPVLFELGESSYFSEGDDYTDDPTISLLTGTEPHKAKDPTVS

Genome polyprotein = Genome polyprotein (dengue virus type 2, UniProt P29990); assay: flavivirus cap methylation enzyme inhibition – biochemical, confirmation dose response, primary screen (AID 588689); format: functional
[20] = target: Glucose-6-phosphate 1-dehydrogenase (Homo sapiens, UniProt P11413); assay: inhibition of Homo sapiens G6PD, dose series – biochemical, fluorescence, selectivity assay for P. falciparum G6PD inhibitor project, dose response (AID 504792); format: functional
NS3 = NS3 (Hepatitis C virus, UniProt A3EZJ3); assay: PubChem AID 2173; design: species or system Hepacivirus hominis
[21] = target: T8, Rac GTPase-activating protein 1 (Homo sapiens, UniProt Q9H0H5); assay: blockers of MgcRacGAP-driven Rac1 GTP hydrolysis – biochemical, ADP Hunter fluorescence, primary and confirmatory, confirmation (AID 624330); format: functional
T8 sequence (Q9H0H5 whole entry): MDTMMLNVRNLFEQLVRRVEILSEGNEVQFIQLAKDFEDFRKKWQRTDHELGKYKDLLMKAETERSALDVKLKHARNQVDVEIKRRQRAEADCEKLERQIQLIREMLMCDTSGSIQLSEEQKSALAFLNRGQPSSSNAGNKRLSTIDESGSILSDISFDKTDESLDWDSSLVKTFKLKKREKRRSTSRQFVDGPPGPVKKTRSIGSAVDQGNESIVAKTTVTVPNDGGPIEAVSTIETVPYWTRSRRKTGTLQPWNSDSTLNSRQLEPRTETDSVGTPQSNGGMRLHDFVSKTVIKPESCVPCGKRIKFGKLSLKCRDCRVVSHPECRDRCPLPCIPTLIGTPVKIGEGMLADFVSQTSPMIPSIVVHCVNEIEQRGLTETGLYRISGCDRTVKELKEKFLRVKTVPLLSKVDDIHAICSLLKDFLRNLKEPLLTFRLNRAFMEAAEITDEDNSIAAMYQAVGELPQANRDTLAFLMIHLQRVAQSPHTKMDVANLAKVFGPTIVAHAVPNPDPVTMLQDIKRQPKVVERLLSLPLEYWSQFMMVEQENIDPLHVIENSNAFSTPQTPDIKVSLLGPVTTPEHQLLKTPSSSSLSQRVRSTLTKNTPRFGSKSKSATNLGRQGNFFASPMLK

[22] = target: T6, Probable nicotinate-nucleotide adenylyltransferase; format: functional, Staphylococcus aureus subsp. aureus N315
[23] = target: T9, Carboxy-terminal domain RNA polymerase II polypeptide A small phosphatase 1 (Homo sapiens, UniProt Q9GZU7); assay: CTDSP1 inhibitors, concentration-response, biochemical, absorbance readout, ultra-high-throughput screen actives (AID 540297); format: functional
T9 sequence (Q9GZU7 whole entry): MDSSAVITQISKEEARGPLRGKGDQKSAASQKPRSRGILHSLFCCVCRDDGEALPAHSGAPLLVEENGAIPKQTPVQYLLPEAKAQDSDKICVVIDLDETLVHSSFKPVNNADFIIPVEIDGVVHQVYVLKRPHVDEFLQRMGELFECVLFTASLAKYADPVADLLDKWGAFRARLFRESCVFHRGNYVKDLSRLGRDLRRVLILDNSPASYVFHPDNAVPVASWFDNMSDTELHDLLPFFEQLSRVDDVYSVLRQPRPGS

T5 sequence (P63165 whole entry): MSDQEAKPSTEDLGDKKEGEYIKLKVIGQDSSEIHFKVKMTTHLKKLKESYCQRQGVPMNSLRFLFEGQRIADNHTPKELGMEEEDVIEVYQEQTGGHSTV
Sequence of Induced myeloid leukemia cell differentiation protein Mcl-1 (Q07820 whole entry): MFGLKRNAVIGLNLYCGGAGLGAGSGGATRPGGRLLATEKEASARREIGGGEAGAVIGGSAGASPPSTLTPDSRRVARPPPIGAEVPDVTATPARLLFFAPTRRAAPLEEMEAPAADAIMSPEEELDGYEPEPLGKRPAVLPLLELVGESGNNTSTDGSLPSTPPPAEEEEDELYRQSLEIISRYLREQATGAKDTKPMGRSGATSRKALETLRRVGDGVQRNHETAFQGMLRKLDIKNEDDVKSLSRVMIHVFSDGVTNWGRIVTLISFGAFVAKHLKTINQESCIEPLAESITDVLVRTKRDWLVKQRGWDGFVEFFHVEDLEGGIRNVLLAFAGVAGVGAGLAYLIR
T6 sequence (P65502 whole entry): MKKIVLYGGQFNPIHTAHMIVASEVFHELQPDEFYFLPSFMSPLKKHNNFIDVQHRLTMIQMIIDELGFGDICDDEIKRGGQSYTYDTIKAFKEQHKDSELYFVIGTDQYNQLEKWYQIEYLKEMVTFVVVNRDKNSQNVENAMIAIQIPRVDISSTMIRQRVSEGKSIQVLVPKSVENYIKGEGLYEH
Sequence of NS3 (A3EZJ3 whole entry): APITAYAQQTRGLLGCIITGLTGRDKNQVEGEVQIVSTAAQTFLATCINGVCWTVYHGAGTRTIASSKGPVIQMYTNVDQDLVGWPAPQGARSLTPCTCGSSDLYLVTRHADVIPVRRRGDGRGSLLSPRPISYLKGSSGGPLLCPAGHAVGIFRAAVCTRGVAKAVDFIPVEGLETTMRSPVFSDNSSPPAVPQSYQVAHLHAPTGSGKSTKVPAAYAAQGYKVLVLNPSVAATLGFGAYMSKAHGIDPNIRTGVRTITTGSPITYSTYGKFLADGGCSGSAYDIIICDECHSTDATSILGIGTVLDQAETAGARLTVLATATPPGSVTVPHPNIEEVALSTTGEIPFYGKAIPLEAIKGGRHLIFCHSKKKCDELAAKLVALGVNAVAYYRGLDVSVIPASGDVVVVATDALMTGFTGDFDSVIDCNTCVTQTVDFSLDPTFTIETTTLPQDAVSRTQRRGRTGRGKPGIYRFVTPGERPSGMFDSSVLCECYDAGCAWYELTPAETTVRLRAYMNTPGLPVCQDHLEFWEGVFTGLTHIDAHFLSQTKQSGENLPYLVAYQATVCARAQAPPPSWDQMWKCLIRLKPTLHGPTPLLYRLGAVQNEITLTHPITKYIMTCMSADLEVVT
Sequence of Glucose-6-phosphate 1-dehydrogenase (P11413 whole entry): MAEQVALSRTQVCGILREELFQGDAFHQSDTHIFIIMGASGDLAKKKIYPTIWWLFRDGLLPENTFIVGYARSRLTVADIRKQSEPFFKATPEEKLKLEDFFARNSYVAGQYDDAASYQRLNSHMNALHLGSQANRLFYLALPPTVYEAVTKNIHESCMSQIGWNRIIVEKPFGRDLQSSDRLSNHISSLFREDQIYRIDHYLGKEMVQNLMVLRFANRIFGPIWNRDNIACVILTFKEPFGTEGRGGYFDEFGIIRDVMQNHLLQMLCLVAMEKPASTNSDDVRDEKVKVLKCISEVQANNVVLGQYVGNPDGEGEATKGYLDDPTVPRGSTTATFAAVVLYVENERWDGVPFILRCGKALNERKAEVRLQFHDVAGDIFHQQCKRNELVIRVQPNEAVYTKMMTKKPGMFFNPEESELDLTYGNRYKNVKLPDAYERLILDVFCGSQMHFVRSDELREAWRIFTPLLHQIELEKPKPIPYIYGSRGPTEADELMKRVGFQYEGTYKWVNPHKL
Sequence of DNA (cytosine-5)-methyltransferase 1 (P26358 whole entry): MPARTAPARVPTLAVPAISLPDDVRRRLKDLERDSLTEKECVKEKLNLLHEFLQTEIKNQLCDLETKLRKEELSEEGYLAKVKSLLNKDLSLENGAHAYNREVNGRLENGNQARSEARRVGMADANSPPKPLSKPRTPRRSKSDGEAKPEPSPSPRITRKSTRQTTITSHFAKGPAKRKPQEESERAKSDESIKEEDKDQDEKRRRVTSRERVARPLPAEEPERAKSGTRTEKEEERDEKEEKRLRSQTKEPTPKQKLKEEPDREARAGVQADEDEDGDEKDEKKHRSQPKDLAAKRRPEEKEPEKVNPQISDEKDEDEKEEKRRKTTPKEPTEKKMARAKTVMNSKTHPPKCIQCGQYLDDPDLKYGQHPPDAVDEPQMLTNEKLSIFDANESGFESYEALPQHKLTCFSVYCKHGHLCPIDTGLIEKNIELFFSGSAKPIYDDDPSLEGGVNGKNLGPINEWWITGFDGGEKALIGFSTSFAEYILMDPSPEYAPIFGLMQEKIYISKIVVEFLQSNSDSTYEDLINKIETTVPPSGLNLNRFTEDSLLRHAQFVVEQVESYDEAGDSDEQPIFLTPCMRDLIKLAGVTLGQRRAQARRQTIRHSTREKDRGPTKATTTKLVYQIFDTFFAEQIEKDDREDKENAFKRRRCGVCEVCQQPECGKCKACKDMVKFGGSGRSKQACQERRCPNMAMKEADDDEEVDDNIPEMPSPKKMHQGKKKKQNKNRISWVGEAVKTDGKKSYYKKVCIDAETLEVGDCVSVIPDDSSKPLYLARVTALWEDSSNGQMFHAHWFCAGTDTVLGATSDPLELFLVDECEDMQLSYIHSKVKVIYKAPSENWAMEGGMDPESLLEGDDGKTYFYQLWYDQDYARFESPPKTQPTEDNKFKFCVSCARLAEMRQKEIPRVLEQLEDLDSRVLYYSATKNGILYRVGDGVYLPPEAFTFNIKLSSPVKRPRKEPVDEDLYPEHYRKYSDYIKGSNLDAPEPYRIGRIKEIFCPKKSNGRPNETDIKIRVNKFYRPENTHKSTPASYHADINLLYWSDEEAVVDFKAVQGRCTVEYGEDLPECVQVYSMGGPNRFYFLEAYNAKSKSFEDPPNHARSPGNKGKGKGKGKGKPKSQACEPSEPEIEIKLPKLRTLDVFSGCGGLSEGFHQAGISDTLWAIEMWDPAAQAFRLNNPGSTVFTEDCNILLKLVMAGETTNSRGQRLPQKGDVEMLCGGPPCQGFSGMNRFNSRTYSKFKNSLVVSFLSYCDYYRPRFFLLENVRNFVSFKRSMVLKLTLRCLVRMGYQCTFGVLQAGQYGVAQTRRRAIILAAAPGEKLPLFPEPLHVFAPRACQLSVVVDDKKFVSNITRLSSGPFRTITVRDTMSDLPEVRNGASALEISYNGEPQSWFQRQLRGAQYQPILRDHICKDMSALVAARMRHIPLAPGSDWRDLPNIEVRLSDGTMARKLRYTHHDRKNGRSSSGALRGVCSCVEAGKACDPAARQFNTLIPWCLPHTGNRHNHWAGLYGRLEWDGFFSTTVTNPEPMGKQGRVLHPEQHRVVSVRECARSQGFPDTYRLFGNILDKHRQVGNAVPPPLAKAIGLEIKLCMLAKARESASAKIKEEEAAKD
Sequence of Albumin (P02769 whole entry): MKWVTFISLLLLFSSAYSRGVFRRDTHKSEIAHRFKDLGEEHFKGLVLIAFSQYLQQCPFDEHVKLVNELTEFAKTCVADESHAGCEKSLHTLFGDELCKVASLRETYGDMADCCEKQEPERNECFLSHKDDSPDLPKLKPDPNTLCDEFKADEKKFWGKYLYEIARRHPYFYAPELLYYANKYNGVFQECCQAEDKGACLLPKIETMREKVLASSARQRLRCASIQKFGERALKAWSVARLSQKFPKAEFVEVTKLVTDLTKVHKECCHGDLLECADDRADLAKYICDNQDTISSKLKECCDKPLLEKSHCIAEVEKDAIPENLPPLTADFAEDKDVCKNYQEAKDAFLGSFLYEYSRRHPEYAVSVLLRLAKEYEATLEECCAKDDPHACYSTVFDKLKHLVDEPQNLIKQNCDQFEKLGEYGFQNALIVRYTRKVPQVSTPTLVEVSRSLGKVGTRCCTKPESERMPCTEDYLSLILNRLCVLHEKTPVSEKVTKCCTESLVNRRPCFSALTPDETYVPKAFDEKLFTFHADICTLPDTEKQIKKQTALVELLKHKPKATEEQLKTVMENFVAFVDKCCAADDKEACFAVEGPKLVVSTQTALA
Sequence of Genome polyprotein (P29990 2492-3391 limits assumed): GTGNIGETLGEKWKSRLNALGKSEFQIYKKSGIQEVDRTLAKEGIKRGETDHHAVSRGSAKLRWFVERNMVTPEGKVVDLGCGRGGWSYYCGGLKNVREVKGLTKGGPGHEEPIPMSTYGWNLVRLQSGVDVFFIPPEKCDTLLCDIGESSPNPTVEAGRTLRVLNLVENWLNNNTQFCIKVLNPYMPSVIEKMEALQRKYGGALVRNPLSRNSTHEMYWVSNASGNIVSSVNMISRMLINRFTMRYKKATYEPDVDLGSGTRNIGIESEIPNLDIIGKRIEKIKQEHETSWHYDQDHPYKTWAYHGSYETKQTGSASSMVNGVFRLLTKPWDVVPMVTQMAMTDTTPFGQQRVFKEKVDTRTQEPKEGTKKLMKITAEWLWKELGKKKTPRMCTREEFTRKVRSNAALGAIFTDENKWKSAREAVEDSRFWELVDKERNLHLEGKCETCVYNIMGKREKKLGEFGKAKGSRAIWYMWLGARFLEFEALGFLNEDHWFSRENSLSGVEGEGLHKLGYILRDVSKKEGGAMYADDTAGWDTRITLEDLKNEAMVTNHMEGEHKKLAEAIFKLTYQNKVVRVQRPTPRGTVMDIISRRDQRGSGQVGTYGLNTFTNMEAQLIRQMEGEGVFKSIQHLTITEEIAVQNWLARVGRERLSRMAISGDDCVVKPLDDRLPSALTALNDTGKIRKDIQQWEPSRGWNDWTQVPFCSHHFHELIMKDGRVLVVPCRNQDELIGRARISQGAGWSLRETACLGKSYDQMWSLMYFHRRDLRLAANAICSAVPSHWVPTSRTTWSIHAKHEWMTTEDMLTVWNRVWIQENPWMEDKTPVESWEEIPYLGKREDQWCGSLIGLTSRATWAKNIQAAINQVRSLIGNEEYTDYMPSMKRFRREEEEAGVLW

Structure (SMILES): C/C(=N/NC(=O)c1cccs1)c1cccc(N)c1
- IC50 (cells [1]): > 67.6 µM (inactive)
- IC50 [2]: > 67.6 µM (inactive)

Structure (SMILES): COc1cccc(C2=NOC(C(=O)N3CCc4ccccc4C3)C2)c1 (stereo unspecified)
- IC50 [3]: 45.2 µM (active)
- IC50 [4]: 9.21 µM (active)

Structure (SMILES): Cc1ccc2nc(N3C(=O)C(O)=C(C(=O)c4ccco4)C3c3cccs3)sc2c1 (stereo unspecified)
- EC50 (Streptococcus): 4.98 µM (active)
- EC50 [5]: > 120 µM (not active)
- EC50 [6]: > 120 µM (not active)
- IC50 (cells [1]): > 67.5 µM (inactive)
- EC50 (H4): > 120 µM (not active)
- EC50 [7]: > 99 µM (inactive)
- EC50 [8]: > 99 µM (inactive)
- IC50 [2]: > 67.5 µM (inactive)
- EC50 [9]: 2.82 µM (active)

Structure (SMILES): COCCn1nnnc1C(c1ccc(O)c(OC)c1)N1CCc2ccccc2C1 (stereo unspecified)
- EC50 [10]: 695 nM (active)
- IC50 [11]: 7.06 µM (active)
- EC50 (cells [12]): > 29.9 µM (inactive)
- IC50 (cells [13]): > 29.9 µM (inactive)
- IC50 [14]: 3.75 µM (active)

Structure (SMILES): Cc1ccc(C2(C)NC(=O)N(CC(=O)Nc3ccc4[nH]c(=O)[nH]c4c3)C2=O)cc1 (stereo unspecified)
- IC50 [15]: > 66.6 µM (inactive)
- IC50 [16]: 16.5 µM (active)

Structure (SMILES): Cc1cc([N+](=O)[O-])cc(/C=N/n2c(C)nc3ccccc3c2=O)c1O
- EC50 (Streptococcus): 7.71 µM (active)
- IC50 (Albumin): > 94 µM (inactive)
- EC50 [9]: 8.39 µM (active)

Structure (SMILES): O=C(CC1C(=O)NCCN1CCCc1ccccc1)NCCc1ccccc1F (stereo unspecified)
- EC50 [10]: 1710 nM (active)
- EC50 (cells [12]): > 29.9 µM (inactive)
- IC50 (cells [13]): > 29.9 µM (inactive)
- IC50 [14]: 7.17 µM (active)

Structure (SMILES): O=C(CSc1ccc(-c2ccncc2)nn1)c1ccc(Cl)cc1
- IC50 [15]: > 66.6 µM (inactive)
- IC50 [16]: 12.1 µM (active)

Structure (SMILES): Cc1ccc(/C=C/C(=O)Nc2ccc([N+](=O)[O-])c(NC(=O)/C=C/c3ccc(C)o3)c2)o1
- IC50 [17]: 15.3 µM (active)
- IC50 [18]: 7.18 µM (active)
- EC50 [19]: 228 µM (active)
- IC50 [11]: 2.12 µM (active)
- IC50 (Genome polyprotein): > 100 µM (active)
- IC50 [20]: > 80 µM (inactive)
- IC50 (NS3): 41.3 µM (not active)
- IC50 [21]: 165 µM (active)
- IC50 [22]: 5.24 µM (active)
- IC50 [23]: 5.89 µM (active)

Structure (SMILES): CC1=NN(c2ccc(C)cc2C)C(=O)C1C(c1ccccc1O)C1C(=O)N(c2ccc(C)cc2C)N=C1C (stereo unspecified)
- IC50 [3]: 7.5 µM (active)
- IC50 [4]: 18.9 µM (active)
